This is an account of results in US20090169635A1, “PHARMACEUTICAL COMPOSITIONS AND USE THEREOF” (priority 2007, published 2009).

Where a name gives a salt, the structure may show the parent alone. Bounds are passed on as bounds.

For series [1], the system named is Mycobacter avium complex (MAC). The following applies: 100 mg/kg IM five days a week for four weeks; cited from earlier work.
The test system of series [2] is Mycobacterium tuberculosis strain H37RV (ATCC 27294). Nature of the series: Tuberculosis model: mice inoculated intravenously with M. tuberculosis, treated intraperitoneally for 4 weeks, observed to D56. The following applies: for Numbers of deaths: 4 weeks. In kind it is in vivo, BALB/C female mice.
The conditions of series [3]: cited from earlier work.
Series [4] deals with Staphylococcus pneumoniae (ATCC 6301). Put plainly: Bacterial pneumonia model: mice inoculated intratracheally, single intravenous treatment 20 hours later, mortality recorded for 10 days. In kind it is in vivo, Male CD-1 mice. The following applies: Vancomycin dose 1 mg/kg i.v. On the procedure: An investigation of the antibacterial efficacy of nanoparticulate forms of parenterally administered Vancomycin was carried out in comparison with conventional parenteral Vancomycin […] for injection,
Bacteria: […] (ATCC #6301), Gram-positive serotype
Animals: Male CD-1 (Charles River Laboratory) mice weighing 24±2 g provided are used. Space allocation for animals is 45×23×21 cm for 10 mice. The animals are housed in animal cages and are maintained in a hygienic environment under controlled temperature (22°-23° C.) and humidity (50% -60%) with 12 hours light/dark cycles for at least one week in the laboratory prior to initiation of the study. Free access to standard lab food and water supply is allowed.
Pneumonia model: Mice were inoculated intratracheally (IT) with a LD90-100 of […] pneumoniae (ATCC 6301) (9.7×10^6 […]) in 40 μl PBS. In 16 hours, all mice developed pronounced pneumonia, confirmed by histological observation. Test formulations and vehicle were diluted with 5% sterile dextrose and administered intravenously to animals 20 hours after bacterial inoculation. Mortality was recorded once daily for 10 days.

The mark [5] stands for this setting: 100 mg/kg i.p., 2 x week, cumulative 800 mg/kg.
Where [6] appears, read: 200 mg/kg i.p., 5 x week, cumulative 4000 mg/kg.
[7] abbreviates: D56, 200 mg/kg i.p., 5 x week for 4 weeks.

With `[H]/N=C(/N)N[C@H]1[C@H](O)[C@@H](O)[C@H](O[C@@H]2O[C@@H](C)[C@](O)(C=O)[C@H]2O[C@@H]2O[C@@H](CO)[C@H](O)[C@@H](O)[C@@H]2NC)[C@@H](N/C(N)=N\[H])[C@@H]1O` [Streptomycin USP, Streptomycin sulfate], the “bacterial count of MAC from spleen, lungs and liver” value in series [1] is “significant reduction in bacterial count”. Also, the Numbers of deaths is 5/12 in series [2] (100 mg/kg i.p., 2 x week, cumulative 800 mg/kg SM base) and 1/12 in series [2] (200 mg/kg i.p., 5 x week, cumulative 4000 mg/kg SM base). Further, the figures for the “Survival rate (%) 14 d” value in series [2] (setting [5]) and in series [2] (setting [6]) were 83% and 92%, respectively. Further, the “Survival rate (%) 28 d” value in series [2] (setting [5]) stood at 58%; in series [2] (setting [6]) it was 92%. In addition, the “Survival rate (%) 56 d” value in series [2] (setting [5]) came out at 58%; in series [2] (setting [6]), 92%. The “Body weight” value in series [2] (D14, 100 mg/kg i.p., 2 x week) came out at 14.90 ± 1.83 g; in series [2] (D14, 200 mg/kg i.p., 5 x week), 16.22 ± 0.39 g; in series [2] (D28, 100 mg/kg i.p., 2 x week), 16.73 ± 2.64 g; in series [2] (D28, 200 mg/kg i.p., 5 x week) it was 19.62 ± 0.29 g; in series [2] (setting [7]), 17.85 ± 1.15 g. Besides, the “Log (CFU/Lung)” value in series [2] (D14, 100 mg/kg i.p., 2 x week) is on record as 8.16 ± 0.25 Log (CFU/Lung); in series [2] (D14, 200 mg/kg i.p., 5 x week), 7.85 ± 0.14 Log (CFU/Lung); in series [2] (D28, 100 mg/kg i.p., 2 x week), 8.37 ± 0.36 Log (CFU/Lung); in series [2] (D28, 200 mg/kg i.p., 5 x week) it was 7.57 ± 0.26 Log (CFU/Lung); in series [2] (setting [7]) it was 8.86 ± 0.18 Log (CFU/Lung). Further, the “Log (CFU/Spleen)” value in series [2] (D14, 100 mg/kg i.p., 2 x week) is 7.55 ± 0.26 Log (CFU/Spleen); in series [2] (D14, 200 mg/kg i.p., 5 x week), 6.90 ± 0.08 Log (CFU/Spleen); in series [2] (D28, 100 mg/kg i.p., 2 x week), 7.48 ± 0.51 Log (CFU/Spleen); in series [2] (D28, 200 mg/kg i.p., 5 x week) it was 6.66 ± 0.28 Log (CFU/Spleen); in series [2] (setting [7]), 7.21 ± 0.23 Log (CFU/Spleen).

Regarding “Vancomycin sulfate [Vancomycin injection (USP)]”, the “concentration in epithelial lining fluid” value in series [3] (patients, lung epithelial lining fluid versus plasma) is on record as ≤ 20 % of plasma levels. Also, the “patients with inadequate concentrations” value in series [3] (standard dosage (1 g twice daily)) was “approximately 40 % of patients”. In series [4] (10 days), this compound displayed a Mortality of 70% and a Survival of 30%. The “Day 1 (deaths recorded that day)” value in series [4] (n=10, Day 1) was 0. Moreover, the “Day 2 (deaths recorded that day)” value in series [4] (n=10, Day 2) is 0. For the same compound, the “Day 3 (deaths recorded that day)” value in series [4] (n=10, Day 3) is given as 0. Besides, the “Day 4 (deaths recorded that day)” value in series [4] (n=10, Day 4) is recorded as 1. Moreover, the “Day 5 (deaths recorded that day)” value in series [4] (n=10, Day 5) was 3. The “Day 6 (deaths recorded that day)” value in series [4] (n=10, Day 6) came out at 2. The “Day 7 (deaths recorded that day)” value in series [4] (n=10, Day 7) amounted to 0. The “Day 8 (deaths recorded that day)” value in series [4] (n=10, Day 8) is reported as 1. Moreover, the “Day 9 (deaths recorded that day)” value in series [4] (n=10, Day 9) is 0. Moreover, in series [4] (n=10, Day 10), the “Day 10 (deaths recorded that day)” value is recorded as 0.
